Values of other authors, collected in patent publication US20020090388A1, “Intravascular drug delivery device and use therefor” (priority 2000, published 2002).

Tested on: primary pulmonary hypertension
Conditions: patients with primary pulmonary hypertension

CC#CCC(C)[C@H](O)/C=C/[C@@H]1[C@H]2C/C(=C/CCCC(=O)O)C[C@H]2C[C@H]1O (stereo partly shown) [Iloprost]
mean level of dose required to provide significant therapeutic benefits: 2.1 ng/kg/min
